Experimental data taken from patent US10827753B2, “Compositions and methods for controlling nematodes” (Monsanto Technology LLC, priority 2007, dated 2020).
Where two headings read alike, the source gives them in different places. Marks after values point to notes of the source that are not given here.

Legend:
[1] = system: root knot nematode (RKN); test: RKN greenhouse soil assay on cucumber plants; format: in vivo, Meloidogyne incognita
Summary of the method: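 Cucumber in sandy soil in pots drenched with 5 ml compound solution (acetone in 0.05% Triton X 100; 1 mg per four pots = 1 kg/ha), 7 days or 0 days before inoculation. Root knot nematode eggs applied ≥4 h after treatment; galling rated 14 days after inoculation, four replicates.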

[2] = system: Meloidogyne incognita; test: M. incognita miniaturized greenhouse assay on cucumber seedlings (root galling); format: in vivo; set-up: key to 1 ppm gall ratings / 1 ppm gall rating: mean of 3 gall ratings: 0=0-5%, 1=6-20%, 2=21-50%, 3=51-100% root galled; settings: for 8 ppm gall ratings: average of triplicate gall rating, scale 0-3 (% root mass galled)
Summary of the method: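 Compound in acetone/Triton X100 stock (5 mg/mL) diluted into water with 0.015% Triton X100 and applied to sand-planted sprouted cucumber seedlings; inoculated with 500 M. incognita eggs two days after planting. Roots harvested 10–12 days later; galling scored 0–3 by % root mass galled, averaged over triplicates, plus visual root phytotoxicity rating.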

[3] = system: root knot nematode; test: Pre-plant incorporated (PPI) greenhouse test of root knot nematode on cucumber plants; format: in vivo, Meloidogyne incognita; settings: for pest or weed control at 4000 g/ha / pest or weed control at 8000 g/ha / pest or weed control at 2000 g/ha: Meloidogyne incognita, read-out: percent control (galling reduction) relative to the control blank treatment
Summary of the method: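 Compound from acetone stock (4 mg in 4 ml), diluted into 0.05%×100 and mixed into sandy field-soil mix at 8, 4 or 2 kg/ha, equivalent to 2, 1 and 0.5 kg/ha drench. Cucumbers sown 0, 7 or 14 days after treatment, nematode eggs added one week later, harvest 14 days post-inoculation; 4 pots/treatment.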

[4] = Acetone 1 mg/kg, standard 10% acetone in 0.05% Triton X 100 formulation
[5] = Radex 1 mg/kg, emulsifiable concentrate, 6.25% active ingredient by weight
[6] = fourteen day pre-plant incorporated, 2 kg/ha rate, test a
[7] = fourteen day pre-plant incorporated, 4 kg/ha rate, test a
[8] = fourteen day pre-plant incorporated, 4 kg/ha rate, test b
[9] = fourteen day pre-plant incorporated, 8 ka/ha rate, test a
[10] = fourteen day pre-plant incorporated, 8 ka/ha rate, test b
[11] = 0 day treatment, 0.05 kg/ha, test a
[12] = 0 day treatment, 0.1 kg/ha, test a
[13] = 0 day treatment, 0.25 kg/ha, test a
[14] = 0 day treatment, 1 kg/ha, test b
[15] = 24 h, twenty one day pre-plant incorporated, 4 kg/ha rate
[16] = 24 h, twenty one day pre-plant incorporated, 8 ka/ha rate

Structure (SMILES)	percent control (galling reduction) relative to the appropriate control blank treatment [1, 4] [%]	percent control (galling reduction) relative to the appropriate control blank treatment [1, 5] [%]	1 ppm gall ratings ([2]; Table 1B test c)	1 ppm gall ratings ([2]; Table 1B test d)	1 ppm gall ratings ([2]; Table 1B test e)	percent control (galling reduction) relative to the control blank treatment [1, 11]	percent control (galling reduction) relative to the control blank treatment [1, 12]	percent control (galling reduction) relative to the control blank treatment [1, 13] [%]	percent control (galling reduction) relative to the control blank treatment [1, 14]	1 ppm gall ratings ([2]; Table 1B test a)	1 ppm gall ratings ([2]; Table 1B test b)	1 ppm gall rating ([2]; Table 1C test a)	1 ppm gall rating ([2]; Table 1C test b)	1 ppm gall rating ([2]; Table 1D test a)	8 ppm gall rating ([2]; Table 1D test a)	8 ppm gall ratings [2]	pest or weed control at 4000 g/ha [3, 15] [%]	pest or weed control at 8000 g/ha [3, 16] [%]	pest or weed control at 2000 g/ha [3, 6] [%]	pest or weed control at 4000 g/ha [3, 7] [%]	also measured
CCOP(=O)(NC(C)C)Oc1ccc(SC)c(C)c1 (stereo not shown) [Fenamiphos, fenamiphos, reference compound]	98	99	0^c, 0^d, 0^e (0=0-5%)	0^c, 0^d, 0^e (0=0-5%)	0^c, 0^d, 0^e (0=0-5%)																percent control (galling reduction) relative to the control blank treatment [3, 6]: 88^a percent; percent control (galling reduction) relative to the control blank treatment [3, 7]: 99^a percent; percent control (galling reduction) relative to the control blank treatment [3, 8]: 100^b percent; percent control (galling reduction) relative to the control blank treatment [3, 9]: 100^a percent; percent control (galling reduction) relative to the control blank treatment [3, 10]: 100^b percent; percent control (galling reduction) relative to the control blank treatment ([3]; seven day pre-plant incorporated, 4 kg/ha rate): 96%; percent control (galling reduction) relative to the control blank treatment ([3]; seven day pre-plant incorporated, 8 ka/ha rate): 100%; percent control (galling reduction) relative to the control blank treatment ([3]; twenty one day pre-plant incorporated, 4 kg/ha rate): 84%; percent control (galling reduction) relative to the control blank treatment ([3]; twenty one day pre-plant incorporated, 8 ka/ha rate): 99%
c1ccc(-c2noc(-c3cccs3)n2)cc1 [compound 1822]	94	98	0.33	0 (0=0-5%)		7^a percent	47^a percent	60	81%	0.33	0.67	0 (0=0-5%)	0.33	1.33^a	0^a (0=0-5%)	0 (0=0-5%)	82	95	67	97	percent control (galling reduction) relative to the control blank treatment ([1]; 0 day treatment, 0.25 kg/ha, test b): 64%; percent control (galling reduction) relative to the control blank treatment ([1]; 0 day treatment, 1 kg/ha, test a): 89%; percent control (galling reduction) relative to the control blank treatment ([1]; 7 day treatment, 1 kg/ha, test a): 85%; percent control (galling reduction) relative to the control blank treatment ([1]; 7 day treatment, 1 kg/ha, test b): 75%; pest or weed control at 4000 g/ha ([3]; 168 h, seven day pre-plant incorporated, 4 kg/ha rate): 99%; pest or weed control at 8000 g/ha ([3]; 168 h, seven day pre-plant incorporated, 8 ka/ha rate): 99%; pest or weed control at 8000 g/ha [3, 9]: 100%
Brc1ccc(-c2cnc(-c3cccs3)o2)cc1 [compound 4776]			0.33	0.33					— 99^b percent	1 (1=6-20%)	1 (1=6-20%)	1 (1=6-20%)	0.33	0^a (0=0-5%)	0^a (0=0-5%)	0 (0=0-5%)	50	80			1 ppm gall rating ([2]; Table 1C test c): 1 (1=6-20%)
Cc1cc(Cl)ccc1-c1noc(-c2ccco2)n1 [compound 5823]					0.33	53%	85%	95		1.67	0.33								85	98	percent control (galling reduction) relative to the control blank treatment ([1]; 0 day treatment, 0.05 kg/ha, test c): 38%; percent control (galling reduction) relative to the control blank treatment ([1]; 0 day treatment, 0.1 kg/ha, test c): 91%; percent control (galling reduction) relative to the control blank treatment ([1]; 0 day treatment, 0.25 kg/ha, test c): 98%; pest or weed control at 4000 g/ha [3, 8]: 94%; pest or weed control at 8000 g/ha [3, 9]: 100%; pest or weed control at 8000 g/ha [3, 10]: 100%
